Measured values published in patent US20100273757A1, “PYRAZINE DERIVATIVES USEFUL AS ADENOSINE RECEPTOR ANTAGONISTS” (Laboratorios Almirall, S.A., priority 2005, published 2010).

Molecular target: T1, human A2B receptor (Homo sapiens, UniProt P29275)
T1 construct: host or cells: HEK293 cells stably expressing the receptor; membranes prepared from them
T1 sequence (P29275 1-332): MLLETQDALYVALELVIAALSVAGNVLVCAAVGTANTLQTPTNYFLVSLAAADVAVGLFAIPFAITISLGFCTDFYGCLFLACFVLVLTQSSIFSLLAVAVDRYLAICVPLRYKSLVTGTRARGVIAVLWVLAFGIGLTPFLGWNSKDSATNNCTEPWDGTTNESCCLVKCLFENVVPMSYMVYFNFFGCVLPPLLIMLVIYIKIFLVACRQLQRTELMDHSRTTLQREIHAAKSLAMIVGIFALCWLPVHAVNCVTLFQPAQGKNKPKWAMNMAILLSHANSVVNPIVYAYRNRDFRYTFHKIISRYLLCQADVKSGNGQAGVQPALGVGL
Experiment: Adenosine 2B receptor subtype competition radioligand binding assay
Details: [3H]-DPCPX competition, membranes from HEK293 cells expressing human A2B receptor
Method: A2B membranes were prepared from HEK293 cells stably expressing the human A2B receptor that were purchased from Euroscreen (ES-013-C). […] At the end of the incubation, samples were transferred to a GF/C filter plates (Milipore MAFCN0B50) pretreated for 15 min. with 250 μl of Tris-HCl 50 mM pH 6.5 (Buffer B). Samples were then filtered 4 times with 250 μl of buffer B. Samples were counted using 30 μl of Hisafe II (Perkin Elmer) in a Trilux counter.

| Compound | Ki |
| --- | --- |
| COc1nc(-c2ccncc2)c(-c2ccco2)nc1N [Example 67, 6-(2-Furyl)-3-methoxy-5-pyridin-4-ylpyrazin-2-amine] | 9 nM |
| O=C(Nc1cnc(-c2ccncc2Cl)c(-c2ccccn2)n1)C1CC1 [Example 22, N-[5-(3-Chloropyridin-4-yl)-6-pyridin-2-ylpyrazin-2-yl]cyclopropanecarboxamide] | 16 nM |
| O=c1[nH]c2nc(-c3ccncc3)c(-c3cccc(F)c3)nc2[nH]1 [Example 76, 5-(3-Fluorophenyl)-6-pyridin-4-yl-1,3-dihydro-2H-imidazo[4,5-b]pyrazin-2-one] | 4 nM |

Second part, the molecule after the results:

| Ki | Compound |
| --- | --- |
| 4 nM | Nc1cnc(-c2ccncc2F)c(-c2cccc(F)c2)n1 [Example 3, 6-(3-Fluorophenyl)-5-(3-fluoropyridin-4-yl)pyrazin-2-amine] |
| 0.9 nM | Fc1cnccc1-c1nc2cc(-c3cccnc3)[nH]c2nc1-c1cccnc1 [Example 149, 2-(3-Fluoropyridin-4-yl)-3,6-dipyridin-3-yl-5H-pyrrolo[2,3-b]pyrazine] |
| 3 nM | COc1ccc(-c2nc(NC(=O)C3CC3)cnc2-c2ccncc2F)cn1 [Example 119, N-[5-(3-Fluoropyridin-4-yl)-6-(6-methoxypyridin-3-yl)pyrazin-2-yl]cyclopropane carboxamide] |
